# Measured values from article PMC8947478, “Novel, First-in-Human, Oral PCLX-001 Treatment in a Patient with Relapsed Diffuse Large B-Cell Lymphoma” (Current Oncology, 2022).
# “Also recorded” adds a separate entry of the source. Like-named read-outs stand apart in the source and are kept apart here.
# Tests used:
# [1] = Pharmacokinetic analysis of plasma after oral PCLX-001 (UHPLC-MS, two-compartment model); format: in vivo, human; details: patient
# Protocol: The primary pharmacokinetic analysis endpoints were:
# Tmax is the time at which the maximum plasma concentration of PCLX-001 is achieved.
# Cmax is the maximum plasma concentration of PCLX-001.
# The patient was dosed with oral doses of PCLX-001 20 mg. After dosing, the blood samples (3 mL volume) were serially collected into heparinized tubes from a right forearm butterfly cannula. All blood fluid specimens were frozen and later assayed using a validated UHPLC-MS detection method.
# PK Solver 2.0 freeware (https://www.boomer.org/boomer/software/pksolver.zip; accessed 26 November 2021) was used to determine the single dose pharmacokinetic parameters using a two-compartment model. The terminal phase rate constant (λz) was estimated by applying exponential linear regression to the concentrations in the terminal phase, and the apparent terminal half-life (t 1/2) was estimated as 0.693/λz. The area under the concentration (AUC) vs. time curve from the time of injection to the last (Clast) measured concentration (AUC0-tlast) was calculated. […] Oral body clearance (CLoral) was calculated as the ratio of the dose to the AUC0–∞. The area under the first moment concentration vs. time curve (AUMC) was estimated as the sum of the area under the C × t vs. t curve from time zero to Clast, plus the ratios of Clast × t/λz and Clast/λz 2. The mean residence time (MRT) was calculated as the ratio of AUMC to AUC0–∞). The apparent volume of distribution of steady-state (Vdss) was calculated as the product of CL × MRT.
# [2] = tested on: T cells, B cells, and monocyte population; assay: Flow cytometry of live PBMC populations in the treated patient; format: in vivo, human
# Protocol: (§1) Peripheral blood was collected from the patient at each sampling point (Screen, Day 1, and Day 28 of treatment) by venipuncture according to normal phlebotomy practice in 2 × 8 mL BD Vacutainer® CPT™ Tubes. Samples were immediately mixed by gentle inversion 10 times and process for PBMC isolation within 1 h. After centrifugation (1800× g for 20 min) at room temperature (18–25 °C) in a swinging bucket rotor (swing-out head), the mononuclear cells and platelets (referred to as PBMC) were carefully collected as the whitish layer just above the polyester gel and under the plasma layer, transferred into 9 mL freezing media (8 mL Fetal Bovine Serum and 1 mL DMSO), and stored at −70 °C or below until flow cytometry analysis.
# (§2) PBMC were recovered by centrifugation (400× g for 5 min), washed in RPMI culture media, resuspended in PBS, and prepared for FACS analysis. PBMC were first labeled with Zombie Aqua™ Fixable Viability kit (1/100, 20 min at 4 °C; BioLegend, San Diego, CA, USA) for exclusion of dead cells, blocked with Human TruStain FcX Fc receptor blocking solution (5/100, 10 min at room temperature, BioLegend), then stained for extracellular markers using antibodies ECD-CD3 (clone UCHT1) and PE-Cy7-CD4 (clone SFCI12T4D11) from Beckman Coulter (Missaugua, ON, Canada) PerCp-Cy5.5-CD8 (SK-1) and BV-785CD19 (clone HIB19) from BioLegend, and PE-CF594-CD14 (clone MΦPG) from BD Bioscience (Mississauga, ON, Canada) for 20 min at 4 °C. The cells were then fixed and permeabilized using the eBioscience Intracellular Fixation and Permeabilization buffer set (Invitrogen, Mississauga, ON, Canada) and stained for intracellular markers AF-488-HGAL (clone 1H1-A7, eBioscience), AF-488-Lyn (Lyn-01, ab1890, Abcam, Cambridge, UK), and homemade monoclonal antibodies AF-700-NMT1(clone 6F8D5) and APC-NMT2 (clone 6C5E8), as previously described, in parallel with relevant isotype controls for at least 30 min at 4 °C. Prior to applying in the test, intracellular antibodies were first labeled with different fluorochromes using Lightning-Link conjugation kits (Abcam) and titrated to achieve the best concentration. Finally, samples were acquired on a Fortessa X-20 flow cytometer (BD Bioscences, Faculty of Medicine and Dentistry Flow Cytometry Facility, University of Alberta). Data were analyzed using FlowJo software (TreeStar, Ashland, OR, USA, version 10.8).
# HGAL [3] = assay: Flow cytometry of intracellular HGAL level in PBMC populations; format: in vivo, human
# Protocol: as §1, §2
# Lyn [4] = assay: Flow cytometry of intracellular Lyn level in PBMC populations; format: in vivo, human
# Protocol: as §1, §2
# NMT2 = target: T1, NMT2 (Homo sapiens, UniProt O60551); assay: Flow cytometry of intracellular NMT2 level in PBMC populations; format: in vivo
# T1 construct: homemade monoclonal antibodies AF-700-NMT1(clone 6F8D5) and APC-NMT2 (clone 6C5E8); endogenous in cells; host or cells: patient peripheral blood mononuclear cells (CD4+, CD8+, CD19+, CD14+ populations)
# T1 sequence (O60551 1-498): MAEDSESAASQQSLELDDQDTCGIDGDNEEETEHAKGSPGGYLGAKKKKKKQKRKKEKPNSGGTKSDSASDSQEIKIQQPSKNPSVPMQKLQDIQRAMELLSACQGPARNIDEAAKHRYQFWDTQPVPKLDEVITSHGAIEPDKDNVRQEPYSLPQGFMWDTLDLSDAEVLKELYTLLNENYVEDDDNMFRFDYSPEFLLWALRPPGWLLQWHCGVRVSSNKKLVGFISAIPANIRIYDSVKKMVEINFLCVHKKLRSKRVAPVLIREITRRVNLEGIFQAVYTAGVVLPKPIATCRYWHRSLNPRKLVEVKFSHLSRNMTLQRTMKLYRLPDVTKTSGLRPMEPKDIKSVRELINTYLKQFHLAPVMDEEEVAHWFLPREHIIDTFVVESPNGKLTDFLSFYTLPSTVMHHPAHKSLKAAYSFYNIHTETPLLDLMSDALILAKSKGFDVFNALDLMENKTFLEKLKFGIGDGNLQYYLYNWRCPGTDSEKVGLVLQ
# Protocol: as §1, §2
# [5] = Toxicity assessment in phase I trial (CTCAE version 5.0, DLT); format: in vivo, human; details: patient, 20 mg oral daily
# Protocol: The subject was assessed for toxicity using daily diary entries, clinical assessments at baseline, day 8, day 15, day 22, and day 28. Dose-limiting toxicities (DLTs) were defined as the following cycle 1 CTCAE version 5.0 adverse events: Gr 4 platelets, Gr ≥ 3 platelets with bleeding and/or transfusions, Gr 4 ANC for ≥ 7 days, Gr ≥ 3 febrile neutropenia, and Gr ≥ 3 non-hematological toxicity.
# [6] = tested on: relapsed diffuse large B-cell lymphoma; assay: Efficacy assessment by imaging (Lugano classification criteria); format: in vivo, human; details: patient, 20 mg oral daily, CT on day 29
# Source text: The subject had baseline cross-sectional and PET imaging. Protocol-defined imaging was CT every 2 cycles and PET every 6 cycles or as clinically indicated. Evaluation of response was by the Lugano classification criteria for the evaluation of non-Hodgkin lymphoma.
# [7] = animal models; cited from earlier work
# kinase = tested on: kinase; design: method as in PMID 33093447; details: KINOMEscan; cited from earlier work
# hERG = details: preclinical testing; cited from earlier work
# [8] = cited from earlier work
# [9] = tested on: hematologic and lymphoma cell lines; design: method as in PMID 33093447; details: tissue culture; cited from earlier work
# [10] = tested on: human cancers grown in immunodeficient mice; details: cited from earlier work
# [11] = tested on: Bruton tyrosine kinase (BTK); design: method as in PMID 33093447; details: models of human lymphoma; cited from earlier work
# Lyn [12] = tested on: Lyn; design: method as in PMID 33093447; details: multiple Burkitt Lymphoma and Diffuse Large B cell lymphoma cell lines; cited from earlier work
# HGAL [13] = tested on: HGAL; design: method as in PMID 33093447; details: multiple Burkitt Lymphoma and Diffuse Large B cell lymphoma cell lines; cited from earlier work
# [14] = 20 mg oral, Day 1 single dose, plasma
# [15] = 20 mg daily, 28 days, all populations
structure (smiles),measurement,setting,value
"Cc1c(NS(=O)(=O)c2c(Cl)cc(-c3ccnc(N4CCNCC4)c3)cc2Cl)c(CC(C)C)nn1C [PCLX-001, 2,6-dichloro-N-(3-isobutyl-1,5-dimethyl-1H-pyrazol-4-yl)-4-(2-(piperazin-1-yl)pyridin-4-yl)benzenesulfonamide]",AUC(0-inf),"[1]; human, plasma, po, 20 mg, 20 mg oral daily, Day 15, plasma, read-out: Day 15 AUC0–∞",2.64 µg·h/mL
same,Cmax,"[1]; human, plasma, po, 20 mg, 20 mg oral, Day 1 single dose, plasma, read-out: Cmax",0.278 µg/mL
same,AUC(0-inf),"[1]; human, plasma, po, 20 mg, 20 mg oral, first dose (Day 1), plasma, read-out: AUC0–∞",2.36 µg·h/mL
same,half-life,"[1]; human, plasma, po, 20 mg, 20 mg oral, single dose, read-out: T ½ (apparent terminal half-life) (converted)",16 h
same,MRT,"[1]; human, plasma, 20 mg oral, single dose",18.6 h
same,Tmax,"[1]; human, 20 mg oral, Day 1 single dose, plasma",1.1 h
same,Day 22 pre-dose plasma concentration,"[1]; 20 mg oral daily, Day 22 pre-dose (trough)",51.4 ng/mL
same,drug accumulation in plasma after repeated daily dosing,"[1]; 20 mg oral daily, first dose AUC vs day 15 AUC",without systemic accumulation of drug by day 15; also recorded: no evidence of drug accumulation
same,AUC0-tlast,[1]; [14],1.70133 µg·h/mL
same,Cmax,[1]; [14],0.27823 µg/mL
same,AUMC,"[1]; 20 mg oral, single dose","43,883.76 ng/mL.h^2"
same,CLoral,"[1]; 20 mg oral, single dose",8.4 L/h
same,T ½ (apparent terminal half-life),"[1]; 20 mg oral, single dose",16.42 h
same,Vdss,"[1]; 20 mg oral, single dose",156.49 L
same,"effect on live T cell, B cell and monocyte populations","[2]; 28 days of PCLX-001 treatment, 20 mg daily",only marginally affected
same,"CD19+ B cells, % of population ± CV, Day 28","[2]; live PBMC, 28 days of 20 mg daily, untreated: Screening 0.71, Day 1 1.18",0.59 ± 0.50%
same,"CD14+ monocytes, % of population ± CV, Day 28","[2]; live PBMC, 28 days of 20 mg daily, untreated: Screening 5.01, Day 1 14.2",4.51 ± 0.42%
same,"CD8+ T cells, % of population ± CV, Day 28","[2]; live PBMC, 28 days of 20 mg daily, untreated: Screening 25.1, Day 1 23.1",22.5 ± 0.31%
same,"CD4+ T cells, % of population ± CV, Day 28","[2]; live PBMC, 28 days of 20 mg daily, untreated: Screening 40.2, Day 1 42.5",46.8 ± 0.22%
same,"Total T cells (CD3+), % of population ± CV, Day 28","[2]; live PBMC, 28 days of 20 mg daily, untreated: Screening 66.6, Day 1 66.7",70.1 ± 0.50%
same,change of HGAL protein level in circulating blood mononuclear cells,HGAL [3]; [15],no clear change; also recorded: no apparent trend
same,"HGAL intracellular level, % of population ± CV, Day 28","HGAL [3]; CD4+ T cells, untreated: Screening 12.7, Day 1 22.1",8.6 ± 0.58%
same,"HGAL intracellular level, % of population ± CV, Day 28","HGAL [3]; CD8+ T cells, untreated: Screening 25, Day 1 30.3",17 ± 0.63%
same,"HGAL intracellular level, % of population ± CV, Day 28","HGAL [3]; CD14+ Monocytes, untreated: Screening 83.9, Day 1 87.5",88.3 ± 0.64%
same,"HGAL intracellular level, % of population ± CV, Day 28","HGAL [3]; CD19+ B cells, untreated: Screening 2.44, Day 1 11.2",8.33 ± 0.39%
same,change of HGAL expression in CD14+ monocytes,HGAL [3]; after 28 days of treatment,did not decrease
same,change of Lyn protein level in circulating blood mononuclear cells,Lyn [4]; [15],no clear change; also recorded: no apparent trend; also recorded: no significant decrease
same,"Lyn intracellular level, % of population ± CV, Day 28","Lyn [4]; CD4+ T cells, untreated: Screening 13.7, Day 1 20",28.7 ± 0.37%
same,"Lyn intracellular level, % of population ± CV, Day 28","Lyn [4]; CD8+ T cells, untreated: Screening 17.6, Day 1 25.8",33.3 ± 0.31%
same,"Lyn intracellular level, % of population ± CV, Day 28","Lyn [4]; CD14+ Monocytes, untreated: Screening 51.4, Day 1 40.5",66.6 ± 0.59%
same,"Lyn intracellular level, % of population ± CV, Day 28","Lyn [4]; CD19+ B cells, untreated: Screening 8.33, Day 1 12.4",12.1 ± 0.15%
same,change of NMT2 protein level in circulating blood mononuclear cells,"NMT2; 20 mg daily, 28 days, all cell populations with the exception of monocytes",no clear change; also recorded: very stable
same,"NMT2 intracellular level, % of population ± CV, Day 28","NMT2; CD4+ T cells, untreated: Screening 22.8, Day 1 25.7",35.3 ± 0.36%
same,"NMT2 intracellular level, % of population ± CV, Day 28","NMT2; CD8+ T cells, untreated: Screening 11, Day 1 12.7",18.7 ± 0.33%
same,"NMT2 intracellular level, % of population ± CV, Day 28","NMT2; CD14+ Monocytes, untreated: Screening 6.21, Day 1 6.7",11.7 ± 0.17%
same,"NMT2 intracellular level, % of population ± CV, Day 28","NMT2; CD19+ B cells, untreated: Screening 31.8, Day 1 29",33.3 ± 0.24%
same,change of NMT2 protein level in monocytes,NMT2; end of the first cycle,increased
same,dose-limiting toxicities,[5]; 28-day cycle,did not experience any dose-limiting toxicities; also recorded: no protocol-defined dose-limiting toxicities
same,hematopoietic profile and biochemistry,[5]; throughout the trial,"remained normal; also recorded: no evidence of toxicity to hematopoietic function, liver function, or kidney function"
same,response of lymphoma (Lugano classification criteria),[6],disease progression; also recorded: progression of the volume of lymphoma
same,oral bioavailability,[7],complete oral bioavailability
same,off-target kinase inhibition,kinase,no significant off-target kinase inhibition
same,hERG interaction,hERG,no significant hERG interaction
same,cardiac conduction,[8]; animal non-clinical safety testing,no cardiac conduction issues
same,dose-limiting toxicity in GLP non-clinical safety testing,[8],diarrhea was dose-limiting
same,inhibition of hematologic and lymphoma cell lines,[9],markedly inhibits
same,response in solid cancers,[10],tumour responses
same,response of human cancers grown in immunodeficient mice,[10],complete remissions
same,BTK modification and downstream signaling,[11],profoundly inhibited
same,Lyn protein level in vitro,Lyn [12],significantly decreased
same,HGAL protein level in vitro,HGAL [13],significantly decreased
